# Measurements as given in patent publication US20190100549A1, “FLAVONOIDE-TYPE COMPOUNDS BEARING AN O-RHAMNOSYL RESIDUE” (Universitaet Hamburg, priority 2016, published 2019).
# Values joined by “and” are separate entries in the source; they are usually repeats but may differ in a detail not shown here. Equal entries are not always repeated.
# Tests used:
# Assay type in all cases: cell-based
# [1] = test system: normal human epidermal keratinocytes (NHEK); assay: Cytotoxicity on NHEK monolayer cultures (MTT reduction assay and morphological observation); conditions: for Viability (%): single values
# Method: To determine the cytotoxicity of flavonoid-5-O-α-L-rhamnosides tests were performed versus their aglycon derivatives in cell monolayer cultures. For this purpose concentrations ranging from 1 μM to 250 μM were chosen. The viability of normal human epidermal keratinocytes (NHEK) was twice evaluated by a MTT reduction assay and morphological observation with a microscope. NHEK were grown at 37° C. and 5% CO2 aeration in Keratinocyte-SFM medium supplemented with epidermal growth factor (EGF) at 0.25 ng/mL, pituitary extract (PE) at 25 μg/mL and gentamycin (25 μg/mL) for 24 h and were used at the 3rd passage. For cytotoxicity testing, pre-incubated NHEK were given fresh culture medium containing a specific concentration of test compound and incubated for 24 h. After a medium change at same test concentration cells were incubated a further 24 h until viability was determined. Test results are given in Table B2 and illustrated in FIG. 10.
# HaCaT cells = assay: Glucose uptake (2-NBDG) in HaCaT keratinocytes; design: key to Measure 1 / Measure 2 / Measure 3 / Mean: total green object integrated intensity, GCU×μm2×Well; conditions: +2NBDG 50 μM, 24 h; for Measure 1 / Measure 2 / Measure 3: HaCaT cells, fluorescence; for RFU specific: mean minus control; for Mean: mean of triplicate measurements; for % Glucose uptake: Rosiglitazone 80 μM = 100%
# Method: HaCaT cells (5×10^4) were seeded in 96-well black plates and incubated for 24 h. Then, medium was removed and the cells cultivated in OptiMEM, labeled with 50 μM 2-NBDG (2-[N-(7-nitrobenz-2-oxa-1,3-diazol-4-yl) amino]-2-deoxy-D-glucose and treated with the test substances or the positive control, Rosiglitazone, for 24 h. Medium was removed and the wells were carefully washed with PBS and incubated in PBS (100l/well). Finally the fluorescence was measured using the Incucyte FLR software, the data were analyzed by the total green object integrated intensity (GCU×μm2×Well) of the imaging system IncuCyte HD (Essen BioScience). The fluorescence of Rosiglitazone is taken as 100% of glucose uptake, and the glucose uptake was calculated as (% Glucose uptake)=100(T−B)/(R−B), where T (treated) is the fluorescence of test substance-treated cells, B (Basal) is the fluorescence of 2-NBDG cells and […] is the fluorescence of cells treated with Rosiglitazone.
# NF-κB = NF-κB activity in NIH3T3-KBF-Luc cells stimulated with TNFα (luciferase); conditions: for % Activation: TNFα alone = 100
# Method: NIH3T3-KBF-Luc cells were stably transfected with the KBF-Luc plasmid (Sancho (2003) Mol Pharmacol 63:429-438), which contains three copies of NF-κB binding site (from major histocompatibility complex promoter), fused to a minimal simian virus 40 promoter driving the luciferase gene. Cells (1×10^4 for NIH3T3-KBF-Luc) were seeded the day before the assay on 96-well plate. Then the cells were treated with the test substances for 15 min and then stimulated with 30 ng/ml of TNFα. After 6 h, the cells were washed twice with PBS and lysed in 50 μl lysis buffer containing 25 mM Tris-phosphate (pH 7.8), 8 mM MgCl2, 1 mM DTT, 1% Triton X-100, and 7% glycerol during 15 min at RT in a horizontal shaker. Luciferase activity was measured using a GloMax 96 microplate luminometer (Promega) following the instructions of the luciferase assay kit (Promega, Madison, Wis., USA). […] The experiments for each concentration of the test items were done in triplicate wells.
# STAT3 = STAT3 activity in HeLa-STAT3-luc cells stimulated with IFN-γ (luciferase)
# Method: HeLa-STAT3-luc cells were stably transfected with the plasmid 4xM67 pTATA TK-Luc. Cells (20×10^3 cells/ml) were seeded 96-well plate the day before the assay. Then the cells were treated with the test substances for 15 min and then stimulated with IFN-γ 25 IU/ml. After 6 h, the cells were washed twice with PBS and lysed in 50 μl lysis buffer containing 25 mM Tris-phosphate (pH 7.8), 8 mM MgCl2, 1 mM DTT, 1% Triton X-100, and 7% glycerol during 15 min at RT in a horizontal shaker. Luciferase activity was measured using GloMax 96 microplate luminometer (Promega) following the instructions of the luciferase assay kit (Promega, Madison, Wis., USA). […] The experiments for each concentration of the test items were done in triplicate wells.
# [2] = 25 μM + IFNγ 25 U/ml, IFNγ alone = 100
# [3] = 50 μM + IFNγ 25 U/ml, IFNγ alone = 100
compound,measurement,setting,value
"O=C1CC(c2ccc(O)cc2)Oc2cc(O)cc(O)c21 (stereo not drawn) [Naringenin, 4′,5,7-Trihydroxyflavanone]",Viability (%) Mean,[1]; 1 μM,95%
same,Viability (%),[1]; 1 μM,96% and 95%
same,Viability (%) Mean,[1]; 2.5 μM,93%
same,Viability (%),[1]; 2.5 μM,95% and 92%
same,Viability (%) Mean,[1]; 5 μM,92%
same,Viability (%),[1]; 5 μM,93% and 91%
same,Viability (%) Mean,[1]; 10 μM,95%
same,Viability (%),[1]; 10 μM,95%
same,Viability (%) Mean,[1]; 25 μM,92%
same,Viability (%),[1]; 25 μM,89% and 94%
same,Viability (%) Mean,[1]; 50 μM,89%
same,Viability (%),[1]; 50 μM,85% and 94%
same,Morph. obs.,[1]; 100 μM,"+/−, *"
same,Viability (%) Mean,[1]; 100 μM,75%
same,Viability (%),[1]; 100 μM,76% and 74%
same,Morph. obs.,[1]; 250 μM,"+/−, *"
same,Viability (%) Mean,[1]; 250 μM,47%
same,Viability (%) Mean,"[1]; 250 μM, listed as naringenin",about 50%
same,Viability (%),[1]; 250 μM,48% and 47%
Chrysin-5-O-α-L-rhamnoside [CR2],Measure 1,HaCaT cells; 25 μM test substance,427937
same,Measure 2,HaCaT cells; 25 μM test substance,431593
same,Measure 3,HaCaT cells; 25 μM test substance,390512
same,RFU specific,HaCaT cells; 25 μM test substance,410367 RFU
same,Mean,HaCaT cells; 25 μM test substance,416681
same,% Glucose uptake,HaCaT cells; 25 μM test substance,47.2%
same,Measure 1,HaCaT cells; 50 μM test substance,771478
same,Measure 2,HaCaT cells; 50 μM test substance,1100390
same,Measure 3,HaCaT cells; 50 μM test substance,923151
same,RFU specific,HaCaT cells; 50 μM test substance,925359 RFU
same,Mean,HaCaT cells; 50 μM test substance,931673
same,% Glucose uptake,HaCaT cells; 50 μM test substance,106.5%
same,RLU 1,NF-κB; 10 μM + 30 ng/ml TNFα,156600 RLU
same,RLU 2,NF-κB; 10 μM + 30 ng/ml TNFα,160140 RLU
same,RLU 3,NF-κB; 10 μM + 30 ng/ml TNFα,151070 RLU
same,RLU MEAN,NF-κB; 10 μM + 30 ng/ml TNFα,155937 RLU
same,RLU specific,NF-κB; 10 μM + 30 ng/ml TNFα,132573 RLU
same,% Activation,NF-κB; 10 μM + 30 ng/ml TNFα,101.7%
same,RLU 1,NF-κB; 25 μM + 30 ng/ml TNFα,170390 RLU
same,RLU 2,NF-κB; 25 μM + 30 ng/ml TNFα,179220 RLU
same,RLU 3,NF-κB; 25 μM + 30 ng/ml TNFα,163490 RLU
same,RLU MEAN,NF-κB; 25 μM + 30 ng/ml TNFα,171033 RLU
same,RLU specific,NF-κB; 25 μM + 30 ng/ml TNFα,147670 RLU
same,% Activation,NF-κB; 25 μM + 30 ng/ml TNFα,113.2%
Silibinin-5-O-α-L-rhamnoside [SR1],RLU 1,STAT3; 25 μM + IFNγ 25 U/ml,9507 RLU
same,RLU 2,STAT3; 25 μM + IFNγ 25 U/ml,11653 RLU
same,RLU 3,STAT3; 25 μM + IFNγ 25 U/ml,10203 RLU
same,RLU MEAN,STAT3; 25 μM + IFNγ 25 U/ml,10454 RLU
same,RLU specific,STAT3; 25 μM + IFNγ 25 U/ml,8447 RLU
same,% Activation,STAT3; [2],92.24%
same,RLU 1,STAT3; 50 μM + IFNγ 25 U/ml,10090 RLU
same,RLU 2,STAT3; 50 μM + IFNγ 25 U/ml,11355 RLU
same,RLU 3,STAT3; 50 μM + IFNγ 25 U/ml,10938 RLU
same,RLU MEAN,STAT3; 50 μM + IFNγ 25 U/ml,10794 RLU
same,RLU specific,STAT3; 50 μM + IFNγ 25 U/ml,8787 RLU
same,% Activation,STAT3; [3],95.95%
same,RLU 1,NF-κB; 10 μM + 30 ng/ml TNFα,269710 RLU
same,RLU 2,NF-κB; 10 μM + 30 ng/ml TNFα,262180 RLU
same,RLU 3,NF-κB; 10 μM + 30 ng/ml TNFα,254090 RLU
same,RLU MEAN,NF-κB; 10 μM + 30 ng/ml TNFα,261993 RLU
same,RLU specific,NF-κB; 10 μM + 30 ng/ml TNFα,229147 RLU
same,% Activation,NF-κB; 10 μM + 30 ng/ml TNFα,154.8%
same,RLU 2,NF-κB; 25 μM + 30 ng/ml TNFα,171280 RLU
same,RLU 3,NF-κB; 25 μM + 30 ng/ml TNFα,171730 RLU
same,RLU MEAN,NF-κB; 25 μM + 30 ng/ml TNFα,172650 RLU
same,RLU specific,NF-κB; 25 μM + 30 ng/ml TNFα,139803 RLU
same,% Activation,NF-κB; 25 μM + 30 ng/ml TNFα,94.4%
"COc1ccc(-c2cc(=O)c3c(O)cc(O)cc3o2)cc1O [Diosmetin, 5,7-Trihydroxy-4′-methoxyflavone, reference compound]",% Activation,"STAT3; 50 μM test substance, +IFNγ 25 U/ml, IFNγ alone = 100% activation",50.00%
"COc1ccc(-c2coc3cc(O[C@@H]4OC(C)[C@H](O)C(O)C4O)cc(O[C@@H]4OC(C)[C@H](O)C(O)C4O)c3c2=O)cc1 (stereo partly drawn) [BR1, Biochanin A-5,7-di-O-α-L-rhamnoside]",RLU 1,STAT3; 25 μM + IFNγ 25 U/ml,8162 RLU
same,RLU 2,STAT3; 25 μM + IFNγ 25 U/ml,12819 RLU
same,RLU 3,STAT3; 25 μM + IFNγ 25 U/ml,11157 RLU
same,RLU MEAN,STAT3; 25 μM + IFNγ 25 U/ml,10713 RLU
same,RLU specific,STAT3; 25 μM + IFNγ 25 U/ml,8878 RLU
same,% Activation,STAT3; [2],110.41%
same,RLU 1,STAT3; 50 μM + IFNγ 25 U/ml,12336 RLU
same,RLU 2,STAT3; 50 μM + IFNγ 25 U/ml,11620 RLU
same,RLU 3,STAT3; 50 μM + IFNγ 25 U/ml,12104 RLU
same,RLU MEAN,STAT3; 50 μM + IFNγ 25 U/ml,12020 RLU
same,RLU specific,STAT3; 50 μM + IFNγ 25 U/ml,10185 RLU
same,% Activation,STAT3; [3],126.67%
same,RLU 1,NF-κB; 10 μM + 30 ng/ml TNFα,259120 RLU
same,RLU 2,NF-κB; 10 μM + 30 ng/ml TNFα,247590 RLU
same,RLU 3,NF-κB; 10 μM + 30 ng/ml TNFα,229500 RLU
same,RLU MEAN,NF-κB; 10 μM + 30 ng/ml TNFα,245403 RLU
same,RLU specific,NF-κB; 10 μM + 30 ng/ml TNFα,222040 RLU
same,% Activation,NF-κB; 10 μM + 30 ng/ml TNFα,170.3%
same,RLU 1,NF-κB; 25 μM + 30 ng/ml TNFα,211660 RLU
same,RLU 2,NF-κB; 25 μM + 30 ng/ml TNFα,208010 RLU
same,RLU 3,NF-κB; 25 μM + 30 ng/ml TNFα,203720 RLU
same,RLU MEAN,NF-κB; 25 μM + 30 ng/ml TNFα,207797 RLU
same,RLU specific,NF-κB; 25 μM + 30 ng/ml TNFα,184433 RLU
same,% Activation,NF-κB; 25 μM + 30 ng/ml TNFα,141.4%
"COc1ccc(C2CC(=O)c3c(O)cc(O)cc3O2)cc1O (stereo not drawn) [Hesperetin, 3′,5,7-Trihydroxy-4′-methoxyflavanone]",Viability (%) Mean,[1]; 1 μM,105%
same,Viability (%),[1]; 1 μM,103% and 106%
same,Viability (%) Mean,[1]; 2.5 μM,103%
same,Viability (%),[1]; 2.5 μM,98% and 109%
same,Viability (%) Mean,[1]; 5 μM,106%
same,Viability (%),[1]; 5 μM,107% and 106%
same,Viability (%) Mean,[1]; 10 μM,103%
same,Viability (%),[1]; 10 μM,101% and 105%
same,Viability (%) Mean,[1]; 25 μM,108%
same,Viability (%),[1]; 25 μM,106% and 109%
same,Viability (%) Mean,[1]; 50 μM,106%
same,Viability (%),[1]; 50 μM,106%
same,Viability (%) Mean,[1]; 100 μM,99%
same,Viability (%),[1]; 100 μM,98% and 100%
same,Viability (%) Mean,[1]; 250 μM,57%
same,Viability (%) Mean,"[1]; 250 μM, listed as hesperetin",about 50%
same,Viability (%),[1]; 250 μM,54% and 59%
